Source: ChEMBL document CHEMBL3880429, “Aminopyrimidine compounds and their salts, process for preparation and pharmaceutical use thereof” (2012)
Active and inactive are the calls of the source. The calls are words filed in the database; no cut-off is given here.

How the values were obtained:
[1] = Antitumor activity against human K562 cells xenografted in BALB/cA nude mouse assessed as tumor growth at 150 mg/kg, po qd administered via gavage for 21 days relative to control; type: functional
[2] = Ratio of IC50 for human HL60 cells to IC50 for Bcr-Abl in human K562 cells
[3] = target: Bcr/Abl fusion protein (Homo sapiens) (UniProt P00519+P11274); test: Potency index, ratio of imatinib IC50 to compound IC50 for Bcr-Abl in human K562 cells; type: cell-based
[4] = Antitumor activity against human K562 cells xenografted in BALB/cA nude mouse assessed as tumor growth at 37.5 mg/kg, po qd administered via gavage for 21 days relative to control; type: functional
K562 [5] = test: Antitumor activity against human K562 cells xenografted in po dosed BALB/cA nude mouse assessed as tumor growth inhibition administered as qd via gavage for 21 days; type: functional, organism-based
[6] = Cytotoxicity against human HL60 cells assessed as inhibition of cell proliferation after 48 hrs by MTT assay; type: functional, cell-based; settings: HL-60, 48 h
K562 [7] = test: Antitumor activity against human K562 cells xenografted in BALB/cA nude mouse assessed as extinction of tumor at 150 mg/kg, po qd administered via gavage for 21 days; type: functional, organism-based

Chain of Bcr/Abl fusion protein (Homo sapiens) (P00519 whole entry, looked up, the tested form may be a part): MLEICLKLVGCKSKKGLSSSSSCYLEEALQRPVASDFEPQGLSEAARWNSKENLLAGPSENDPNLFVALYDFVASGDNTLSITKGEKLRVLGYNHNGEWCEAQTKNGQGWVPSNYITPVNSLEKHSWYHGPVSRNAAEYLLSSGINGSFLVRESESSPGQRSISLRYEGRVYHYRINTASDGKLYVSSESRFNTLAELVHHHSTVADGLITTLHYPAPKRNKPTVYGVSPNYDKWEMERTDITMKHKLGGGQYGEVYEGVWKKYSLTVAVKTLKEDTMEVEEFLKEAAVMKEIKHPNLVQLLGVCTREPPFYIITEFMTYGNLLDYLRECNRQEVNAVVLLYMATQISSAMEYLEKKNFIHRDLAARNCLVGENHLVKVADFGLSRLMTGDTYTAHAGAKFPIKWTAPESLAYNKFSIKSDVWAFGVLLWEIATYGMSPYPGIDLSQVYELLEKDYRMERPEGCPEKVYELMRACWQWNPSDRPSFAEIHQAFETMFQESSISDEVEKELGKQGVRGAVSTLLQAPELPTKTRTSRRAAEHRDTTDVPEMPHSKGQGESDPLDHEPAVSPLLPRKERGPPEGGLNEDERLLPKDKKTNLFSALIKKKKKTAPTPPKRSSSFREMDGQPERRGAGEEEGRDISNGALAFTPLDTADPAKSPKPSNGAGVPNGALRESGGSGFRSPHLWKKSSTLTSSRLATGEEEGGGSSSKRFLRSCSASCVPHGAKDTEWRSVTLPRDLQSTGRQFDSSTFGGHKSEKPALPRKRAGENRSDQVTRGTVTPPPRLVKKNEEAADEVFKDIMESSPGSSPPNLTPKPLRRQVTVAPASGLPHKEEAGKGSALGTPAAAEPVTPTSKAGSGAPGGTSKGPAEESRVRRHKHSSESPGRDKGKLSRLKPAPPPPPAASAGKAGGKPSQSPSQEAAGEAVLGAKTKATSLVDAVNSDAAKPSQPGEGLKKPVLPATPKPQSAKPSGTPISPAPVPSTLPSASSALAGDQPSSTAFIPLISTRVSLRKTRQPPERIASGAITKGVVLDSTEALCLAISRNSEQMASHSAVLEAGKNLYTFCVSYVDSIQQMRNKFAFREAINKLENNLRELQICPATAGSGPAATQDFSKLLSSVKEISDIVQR
Chain of Bcr/Abl fusion protein (Homo sapiens) (P11274 whole entry, looked up, the tested form may be a part): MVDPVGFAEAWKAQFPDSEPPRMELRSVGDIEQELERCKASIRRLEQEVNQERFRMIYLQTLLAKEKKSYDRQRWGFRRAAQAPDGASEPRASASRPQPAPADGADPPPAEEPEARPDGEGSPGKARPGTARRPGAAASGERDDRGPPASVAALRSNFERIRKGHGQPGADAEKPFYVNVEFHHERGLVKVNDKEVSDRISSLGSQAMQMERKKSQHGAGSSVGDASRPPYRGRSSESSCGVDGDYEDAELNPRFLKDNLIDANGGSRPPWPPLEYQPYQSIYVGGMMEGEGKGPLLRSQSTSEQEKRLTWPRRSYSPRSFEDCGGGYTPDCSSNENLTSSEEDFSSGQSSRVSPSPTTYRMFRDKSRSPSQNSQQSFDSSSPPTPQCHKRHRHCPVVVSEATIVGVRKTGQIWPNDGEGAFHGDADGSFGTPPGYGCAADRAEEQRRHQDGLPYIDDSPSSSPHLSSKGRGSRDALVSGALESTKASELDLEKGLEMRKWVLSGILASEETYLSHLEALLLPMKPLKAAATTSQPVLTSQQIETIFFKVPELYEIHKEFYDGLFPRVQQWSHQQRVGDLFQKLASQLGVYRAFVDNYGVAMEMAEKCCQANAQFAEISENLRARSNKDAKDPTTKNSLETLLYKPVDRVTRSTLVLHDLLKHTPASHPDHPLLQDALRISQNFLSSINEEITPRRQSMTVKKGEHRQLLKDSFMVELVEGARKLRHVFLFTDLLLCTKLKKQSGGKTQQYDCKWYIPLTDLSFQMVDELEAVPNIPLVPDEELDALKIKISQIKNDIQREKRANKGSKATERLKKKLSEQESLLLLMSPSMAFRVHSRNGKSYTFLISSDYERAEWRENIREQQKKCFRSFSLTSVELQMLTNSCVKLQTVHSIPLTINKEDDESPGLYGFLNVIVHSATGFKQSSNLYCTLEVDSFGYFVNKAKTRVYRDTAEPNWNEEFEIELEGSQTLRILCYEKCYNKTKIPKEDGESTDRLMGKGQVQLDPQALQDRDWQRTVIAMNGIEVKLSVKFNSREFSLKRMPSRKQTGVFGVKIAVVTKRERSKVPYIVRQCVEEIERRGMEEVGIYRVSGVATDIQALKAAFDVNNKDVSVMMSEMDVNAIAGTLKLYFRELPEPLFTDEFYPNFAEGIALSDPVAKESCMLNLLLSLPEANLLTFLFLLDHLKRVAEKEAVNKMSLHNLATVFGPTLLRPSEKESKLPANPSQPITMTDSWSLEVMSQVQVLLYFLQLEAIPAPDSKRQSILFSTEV

Which results are given for `CS(=O)(=O)O.Cc1ncc(NC(=O)c2ccc(CN3CCN(C)CC3)c(Cl)c2)cc1Nc1nccc(-c2cccnc2)n1`?
T/C [1]: 47.4%; Ratio IC50 [2]: 125; Ratio IC50 [3]: 4

For `CS(=O)(=O)O.Cc1ncc(NC(=O)c2ccc(CN3CCN(C)CC3)c(C(F)(F)F)c2)cc1Nc1nccc(-c2cccnc2)n1`, which T/C [1] is on record?
The T/C was 0%.

And the T/C [4]?
The T/C was 40.4%.

And the TGI (K562 [5])?
The TGI was “Dose-dependent effect”.

And the IC50 [6]?
Its IC50 is 10 µM.

What about the Activity (K562 [7]) of the same compound?
The Activity was “Active”.

For `CS(=O)(=O)O.Cc1ccc(NC(=O)c2ccc(CN3CCN(C)CC3)cc2)cc1Nc1nccc(-c2cccnc2)n1` [IMATINIB MESYLATE], which T/C [1] is on record?
Its T/C is 34.2 - 117.7%.
